# Assay results reported in publication PMC9078504, “Antiacetylcholinesterase triterpenes from the fruits of Cimicifuga yunnanensis” (RSC Advances, 2018).
# Target: T1, acetylcholinesterase (AChE) (Homo sapiens, UniProt P22303)
# T1 construct: derived from human erythrocytes (Sigma)
# Assay: Ellman spectrophotometric assay, acetylthiocholine hydrolysis at […] nm
# Assay type: biochemical
# T1 sequence (P22303 32-614): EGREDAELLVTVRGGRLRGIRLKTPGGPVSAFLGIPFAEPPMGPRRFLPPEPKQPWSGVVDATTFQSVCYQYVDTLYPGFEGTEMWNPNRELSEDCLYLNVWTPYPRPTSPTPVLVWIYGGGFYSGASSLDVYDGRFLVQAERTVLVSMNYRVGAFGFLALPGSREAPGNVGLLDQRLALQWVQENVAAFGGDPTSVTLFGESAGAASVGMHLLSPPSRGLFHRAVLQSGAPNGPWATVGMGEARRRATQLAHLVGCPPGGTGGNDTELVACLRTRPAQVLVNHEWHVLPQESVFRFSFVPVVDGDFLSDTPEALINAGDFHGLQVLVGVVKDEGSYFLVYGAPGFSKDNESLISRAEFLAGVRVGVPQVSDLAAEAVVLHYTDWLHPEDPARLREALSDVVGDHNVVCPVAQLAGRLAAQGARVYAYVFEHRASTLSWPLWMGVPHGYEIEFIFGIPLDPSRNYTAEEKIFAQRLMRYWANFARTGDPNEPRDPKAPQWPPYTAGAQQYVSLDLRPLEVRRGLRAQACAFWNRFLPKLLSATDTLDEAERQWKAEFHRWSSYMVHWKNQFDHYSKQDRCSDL
row,SMILES,IC50
1,"Cc1cc(C=O)nc2c1[C@@]1(C)C[C@H](O)[C@@]34C[C@@]35CC[C@H](O[C@@H]3OC[C@H](O)[C@H](O)[C@H]3O)C(C)(C)[C@@H]5CC=C4[C@]1(C)C2 [compound 2, (3β,11β)-11-Hydroxy-16,23-nitrilo-7,17(20),22-trien-24-formyl-25,26,27-trinor-9,19-cycloart-3-O-α-larabinopyranoside]",3.87 µM
2,"CC(=O)O[C@@H]1C[C@@]23C[C@@]24CC[C@H](O[C@@H]2OC[C@H](O)[C@H](O)[C@H]2O)C(C)(C)[C@@H]4CC=C3[C@]2(C)C(=O)C(=O)[C@@]3(O[C@@H]([C@H](O)C(C)(C)O)C[C@H]3C)[C@@]12C [compound 1, (3β,12β,17S,20R,23R,24S)-17,23-Epoxy-15,16-dione-12-acetoxy-3,25-dihydroxy-7-en-9,19-cycloart-3-O-α-larabinopyranoside]",1.58 µM
